Measurements from patent publication CN102775413A, “氨基取代吴茱萸次碱类似物及其合成方法与在制备抗肥胖症药物中的应用” (Sun Yat Sen University, priority 2012, dated 2012).
Entries after “also recorded” stand apart in the source; their conditions may differ.

Assays:
[1] = tested on: 3T3-L1 mouse adipocytes (3T3-L1小鼠脂肪细胞); assay: Triglyceride content of differentiating 3T3-L1 adipocytes (triglyceride assay kit); assay type: cell-based
[2] = tested on: FAO rat hepatocytes (FAO大鼠肝细胞); assay: High-fructose-induced fat accumulation in FAO hepatocytes (triglyceride kit and BCA protein kit); assay type: cell-based; settings: 24 h, Fig. 5
[3] = Precipitation from culture medium, microscopy, 15 μM (Example 10, Fig. 4); assay type: physicochemical; settings: incubated with 3T3-L1 cells 6 days
[4] = Precipitation from culture medium, microscopy, 20 μM (Example 11, Fig. 6); assay type: physicochemical; settings: 24 h incubation with cells
cells (细胞) = assay: Reduction of fat accumulation (general statement, test not specified); assay type: cell-based; settings: inventors' finding

In the case of `O=c1c2ccccc2nc2n1CCc1c-2[nH]c2ccccc12` [R1, 吴茱萸次碱], the “effect on triglyceride content of 3T3-L1 cells vs DMSO control (DM)” value ([1]; 1 μM, Fig. 1, significance vs DM) is reported as “显著性地降低”, the inhibition at 3 µM ([1]; Mus musculus, 144 h, 3T3-L1 cells, 3 μM, Day 6, vs DMSO control, mean of three independent experiments, Fig. 2, read-out: reduction of triglyceride content) is reported as 34% and the “concentration dependence of reduction of fat accumulation in 3T3-L1 cells” value ([1]; R1 0, 0.3, 1, 3, 10, 15 μM, R17 and R18 0, 0.03, 0.1, 0.3, 1, 3 μM, Fig. 2) is reported as “浓度依赖性地减少”. The inhibition at 10 µM ([2]; Hepatocyte, FAO rat hepatocytes, 10 μM, 25 mM fructose, triglyceride per mg protein vs control, mean of three independent experiments, read-out: reduction of high-fructose-induced fat accumulation) was 72%, the “concentration dependence of inhibition of high-fructose-induced fat accumulation in FAO rat hepatocytes” value ([2]; R1 0, 0.3, 10, 20 μM, R17 0, 0.1, 0.3, 10 μM) was “浓度依赖性地抑制; also recorded: 浓度依赖性地减少” and the “precipitation from culture medium” value [3] was “从培养基中析出来”. The “precipitation from culture medium” value [4] was “会从培养基中析出; also recorded: 从培养基中析出来” and the “reduction of fat accumulation in cells” value (cells (细胞)) was “能减少细胞的脂肪蓄积”.
